# Experimental data as given in the OPERA property sets (Mansouri et al. 2018).
# Where a SMILES comes first, the peptide text is derived from it.
row,SMILES,logP
1,Cc1coc2c(C)c3oc(=O)cc(C)c3cc12,3.25
2,Cn1c2c(c3cc(Cl)ccc31)CCNC2,2.3
3,CCCc1nc(N)nc(N2CCOCC2)n1,0.7
4,Cc1nc([N+](=O)[O-])c(Cl)[nH]1,1.06
5,CCC(C)C(N)C(=O)N1CCCC1C(=O)O (stereo not drawn) (H-Ile-Pro-OH; configuration not given here),-1.79
6,CCN(CC)c1nc(N)nc(Cl)n1,2.14
7,CCCc1nc(NCN2CCCC2=O)nc(N2CCOCC2)n1,1.62
8,CC(C)Oc1cccc2nc(N)nc(N)c12,2.05
9,OCCN1CCN(CCn2nc3ccccc3n2)CC1,0.43
10,CC(C)CC(NC(=O)C(N)Cc1ccc(O)cc1)C(=O)NC(C(=O)O)C(C)C (stereo not drawn) (H-Tyr-Leu-Val-OH; configuration not given here),-1.45
11,O=C1C=C(N2CCCCC2)CN1c1ccc(Cl)cc1,3
12,N#CC(C#N)=NNc1cccc(Cl)c1Cl,3.85
13,COCCNC(=O)Cn1cnc([N+](=O)[O-])n1,-0.85
14,Nc1nc(F)nc2c1ncn2[C@@H]1O[C@H](CO)[C@@H](O)[C@H]1O,-0.8
15,CC(C)NC(=NC#N)NS(=O)(=O)c1cnccc1NC1CCCCCC1,2.07
16,Cc1cccc(C)c1OCCN(C)C,2.74
17,CCC(C)C(NC(=O)C(N)CC(C)C)C(=O)NC(C(=O)NCC(=O)NC(C)C(=O)O)C(C)CC (configuration not stated) (H-LIIGA-OH; configuration not given here),-1.65
18,CCCCNC1CCc2c(OC)cccc2C1C (configuration not stated),3.73
19,Cc1ccc(-n2nnnc2N)cc1Cl,1.89
20,CC(C)c1cc(=S)ss1,2.75
21,CCc1cccc(C)c1NC(=O)OC,1.99
22,CCCCOCCCNc1[nH]cnc2ncnc1-2,2.22
23,OCCCCCCCCNc1[nH]cnc2ncnc1-2,2.23
24,CCCCC(C)CC(O)C=CC1C(O)CC2CC(CCOCC(=O)OC)CC21 (configuration not stated),4.5

# Further lines, results first:
row,logP,SMILES
1,-0.32,CC(C)CC(NC(=O)C(N)Cc1c[nH]c2ccccc12)C(=O)NC(Cc1ccccc1)C(=O)NC(C)C(=O)NC(C)C(=O)O (configuration not stated) (H-WLFAA-OH; configuration not given here)
2,2.6,O=c1cc(-c2ccccc2)[nH]n1-c1ccc(Cl)cc1
3,-1.77,CCC(C)C(N)C(=O)NC(Cc1ccc(O)cc1)C(=O)NC(C(=O)O)C(C)C (stereo not drawn) (H-Ile-Tyr-Val-OH; configuration not given here)
4,2.13,CCC(C)NCc1cccc(S(=O)(=O)c2csc(S(N)(=O)=O)c2)c1 (configuration not stated)
5,2.48,Cc1c2occc2cc2ccc(=O)oc12
6,6.47,Clc1cc2c(oc3c(Cl)c(Cl)ccc32)c(Cl)c1Cl
7,3.58,O=C1NC(=O)C(c2ccccc2)(c2ccccc2)N1S(=O)(=O)c1ccc(O)cc1
8,2.82,CCCCC(=O)OCOCC(=O)C1(O)Cc2c(O)c3c(c(O)c2C(OC2CC(N(C)C)C(O)C(C)O2)C1)C(=O)c1c(OC)cccc1C3=O (configuration not stated)
9,3.37,CN(C)C(c1ccccc1)c1ccccc1
10,2.84,CC1=CC(=C2C(=O)c3ccccc3C2=O)C=C(C)N1CCCNC(=O)N(CCCl)N=O
11,3.78,Oc1cc(O)c2c(c1)OC(c1ccc(O)c(O)c1)C(OCCCc1ccccc1)C2 (configuration not stated)
12,2.31,COc1ccccc1CNc1ncnc2nc[nH]c12
13,4.2,Cn1cc(-c2ccc(Cl)cc2)c(N2CCOCC2)c1
14,1.01,N#Cc1cccc(Cn2ccnc2)c1
15,3.6,O=C(O)C(c1ccc(-c2ccccc2)cc1)C(O)c1ccccc1 (configuration not stated)
16,3.49,CCCCNCc1ccc(C)cc1
17,5.69,COC(=O)C1=C(C)NC(C)=C(C(=O)OCC=Cc2ccccc2)C1c1cccc([N+](=O)[O-])c1 (configuration not stated)
18,0.9,COC(=O)C(C)NP(=O)(OCC1C=CC(n2cc(C)c(=O)[nH]c2=O)O1)Oc1ccc([N+](=O)[O-])cc1 (configuration not stated)
19,4.05,Clc1ccc(N2CCN(CCn3nc4ccccc4n3)CC2)cc1
20,0.56,Nc1nnnn1-c1cccc(O)c1
21,1.6,COC(=O)C(C)NP(=O)(OCC1C=CC(n2cc(C)c(=O)[nH]c2=O)O1)Oc1ccc(Br)cc1 (configuration not stated)
22,-0.28,C[N+](C)([O-])CCc1ccccc1
23,5.09,S=C=NC(c1ccccc1)c1ccccc1
